Patent publication US7501430B2 (ArQule, Inc., priority 2006, dated 2009)

These compounds were tested against T1, mutant B-RAF (Homo sapiens, UniProt P15056, V600E) (assay: RAF biochemical assay (MEK-1 phosphorylation, anti-phospho MEK1/2 detection)). Details: @ 10 uM; read-out: Mutant B-RAF % inhibition.
T1 construct: purchased Upstate (Charlottesville, Va.)
How it was run: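 Detection is by ELISA: after a 30 min room-temperature reaction, plate-captured GST-MEK-1 is probed with anti-phospho MEK1/2, then an AP-tagged secondary antibody with fluorescent Attophos read-out.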

T1 sequence (P15056 whole entry V600E): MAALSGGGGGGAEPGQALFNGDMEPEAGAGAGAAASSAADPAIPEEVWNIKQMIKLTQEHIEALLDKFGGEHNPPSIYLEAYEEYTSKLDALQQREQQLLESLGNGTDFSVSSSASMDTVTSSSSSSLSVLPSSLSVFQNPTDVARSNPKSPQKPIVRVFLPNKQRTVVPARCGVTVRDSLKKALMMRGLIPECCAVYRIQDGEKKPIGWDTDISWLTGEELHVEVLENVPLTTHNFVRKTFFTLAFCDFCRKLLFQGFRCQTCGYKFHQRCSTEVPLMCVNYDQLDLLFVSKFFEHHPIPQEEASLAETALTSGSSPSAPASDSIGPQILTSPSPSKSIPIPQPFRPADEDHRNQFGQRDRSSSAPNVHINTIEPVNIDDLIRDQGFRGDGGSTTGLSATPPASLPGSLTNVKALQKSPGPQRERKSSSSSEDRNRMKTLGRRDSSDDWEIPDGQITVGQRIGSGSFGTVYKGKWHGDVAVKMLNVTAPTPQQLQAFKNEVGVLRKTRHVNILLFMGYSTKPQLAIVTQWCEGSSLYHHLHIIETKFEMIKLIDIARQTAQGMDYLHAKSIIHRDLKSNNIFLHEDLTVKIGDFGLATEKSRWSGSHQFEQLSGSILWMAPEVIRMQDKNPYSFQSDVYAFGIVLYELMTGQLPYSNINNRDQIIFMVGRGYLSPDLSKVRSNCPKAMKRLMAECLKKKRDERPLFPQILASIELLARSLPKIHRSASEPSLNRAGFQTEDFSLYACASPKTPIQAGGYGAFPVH

inhibition at 10 µM [%] | Structure (SMILES)
53 | C[C@@H](NC(=O)N1CCC[C@@H](Nc2nccc(-c3c(-c4ccc(F)cc4)nc4occn34)n2)C1)c1ccccc1 [Example 72, (3R)-3-({4-[6-(4-fluorophenyl)imidazo[2,1-b][1,3]oxazol-5-yl]pyrimidin-2-yl}amino)-N-[(1R)-1-phenylethyl]piperidine-1-carboxamide]
16 | Cc1ccc(NC(=O)N2CCC[C@@H](Nc3nccc(-c4c(-c5ccc(F)cc5)nc5occn45)n3)C2)cc1 [Example 17]
27 | COc1ccc(Cl)cc1S(=O)(=O)N1CCC(Nc2nccc(-c3c(-c4ccc(F)cc4)nc4occn34)n2)CC1 [Example 227, N-{1-[(5-chloro-2-methoxyphenyl)sulfonyl]piper-idin-4-yl}-4-[6-(4-fluorophenyl)imidazo[2,1-b][1,3]oxazol-5-yl]pyrimidin-2-amine]
44 | N#Cc1ccc(S(=O)(=O)N2CCC(Nc3nccc(-c4c(-c5ccc(F)cc5)nc5occn45)n3)CC2)cc1 [Example 240, 4-{[4-({4-[6-(4-fluorophenyl)imidazo[2,1-b][1,3]oxazol-5-yl]pyrimidin-2-yl}amino)piperidin-1-yl]sulfonyl}benzonitrile]

Same assay, conditions: read-out: Mutant B-RAF % inhibition

Structure (SMILES) | inhibition at 10 µM [%]
Cc1ccccc1S(=O)(=O)N1CCC[C@@H](Nc2nccc(-c3c(-c4ccc(F)cc4)nc4occn34)n2)C1 [Example 53, 4-(6-(4-fluorophenyl)imi-dazo[2,1-b][1,3]oxazol-5-yl]-N-{(3R)-1-[(2-methylphenyl)sulfonyl]piperidin-3-yl}pyrimidin-2-amine] | 42
O=S(=O)(c1cccc(F)c1)N1CCC[C@@H](Nc2nccc(-c3c(-c4ccc(F)cc4)nc4occn34)n2)C1 [Example 52, 4-[6-(4-fluorophenyl)imi-dazo[2,1-b][1,3]oxazol-5-yl]-N-{(3R)-1-[(3-fluorophenyl)sulfonyl]piperidin-3-yl}pyr-imidin-2-amine] | 55

Same assay, conditions: read-out: Mutant B-RAF IC50

IC50 [nM] | Structure (SMILES)
168 | O=S(=O)(c1ccccc1)N1CCC(Nc2nccc(-c3c(-c4ccc(F)cc4)nc4occn34)n2)CC1 [Example 197, 4-[6-(4-fluorophenyl)imidazo[2,1-b][1,3]oxazol-5-yl]-N-[1-(phenylsulfonyl)piperidin-4-yl]pyrimidin-2-amine]
541 | O=S(=O)(c1ccc(F)c(Cl)c1)N1CCC(Nc2nccc(-c3c(-c4ccc(F)cc4)nc4occn34)n2)CC1 [Example 204, N-{1-[(3-chloro-4-fluorophenyl)sulfonyl]piperidin-4-yl}-4-[-6-(4-fluorophenyl)imidazo[2,1-b][1,3]oxazol-5-yl]pyrimidin-2-amine]
2960 | NCC(=O)Nc1cccc(-c2nc3sccn3c2-c2ccnc(N[C@@H]3CCCN(S(=O)(=O)c4ccc(Cl)cc4)C3)n2)c1 [Example 124, N~1~-(3-{5-[2-({(3R)-1-[(4-chlorophenyl)sulfonyl]piperidin-3-yl}amino)pyrimidin-4-yl]imidazo[2,1-b][1,3]thiazol-6-yl}phenyl)glycinamide]
1500 | CCC(=O)N1CCC(Nc2nccc(-c3c(-c4ccc(F)cc4)nc4occn34)n2)CC1 [Example 188, 4-[6-(4-fluorophenyl)imidazo[2,1-b][1,3]oxazol-5-yl]-N-(1-propionylpiperidin-4-yl)pyrimidin-2-amine]
1600 | O=S(=O)(c1ccc(Cl)cc1)N1CC[C@@H](Nc2nccc(-c3c(-c4cccc(O)c4)nc4sccn34)n2)C1 [Example 283, 3-{5-[2-({(3R)-1-[(4-chlorophenyl)sulfonyl]pyrro-lidin-3-yl}amino)pyrimidin-4-yl]imidazo[2,1-b][1,3]thiazol-6-yl}phenol]
441 | O=C(O)CCc1ccc(S(=O)(=O)N2CCC[C@@H](Nc3nccc(-c4c(-c5ccc(F)cc5)nc5occn45)n3)C2)cc1 [Example 63, 3-(4-{[(3R)-3-({4-[6-(4-fluorophenyl)imidazo[2,1-b][1,3]oxazol-5-yl]pyrimidin-2-yl}amino)piperidin-1-yl]sulfonyl}phenyl)propanoicacid]
